Structures can show the parent of a compound that is named as a salt.

What all share (assay type): cell-based
Test [1] deals with panel of cell lines that included NSCLC, HNSCC, melanoma, and CRC. The test can be described thus: WST8 in vitro sensitivity to MTAs with and without EM. The procedure: Day 1: cells were harvested cells from flask (4 mL accutase for T175 for 3-5 minutes), and spin down for 5 mins at 1200 rpm. The supernatant was poured off, and the pellet gently resuspended in 1 mL media. Countess counts were performed, and the cells were diluted in media (10% FBS). With multi-channel pipette, 2500 cells were seeded in 100 uL of media (10% FBS) in each well of 96 well plate. The cells were let to adhere and grow for 24 hours. Day 2: serial drug dilutions of MTAs+/−EMs at 5× of concentrations (as done above) were performed in media (10% FBS). 20 uL of media form each well of the 96 well plate (80 uL media left in wells) was removed, and 20 uL of appropriate 5× drug dilutions was added to each respective well (for a 1× conc). The cells were incubated with drug for 72 hours in 37C incubator. Day 5: 10 uL of WST-8 reagent was added to each well of the 96 well plate and mixed gently. the plates were incubated up to 4 hours at 37C in dark, and absorbance readings were taken at […] and 600 nm wavelengths at 1, 2, 3 and 4h, until control absorbance levels were 1.5-2.0).
We used a panel of cell lines that included NSCLC, HNSCC, melanoma, and CRC. These cell lines are a good model system harboring similar (epi)genetic changes found in patients' tumors. We used the WST8 assay to determine the in vitro sensitivity to various MTAs with and without EM1.
On the technique in general: Formazan colour is commonly taken as a measure of viable cells.

Test [2] deals with Ca-922 cell line. The test can be described thus: HoPI live cell staining. More on the design: concentration or dose not given beside the values. Conditions: single agent, 24 hours. From the text: (§1) A double stain of Hoechst 33342 and propidium iodide allows for the determination of cell viability with high specificity and low background noise, as compared to trypan blue staining. Hoechst 33342 is a cell permeable blue fluorescent nuclear stain which will stain all cell types. Propidium iodide is a cell impermeable red fluorescent nuclear stain that will only bind to the nuclei of cells with compromised membranes (dead cells). The staining can be performed rapidly on live cell suspensions within 15 minutes. 25 uL of 4× Hoechst 33342 Solution (40 ug/mL) and 25 uL of 4×Propidium Iodide Solution are added to 50 uL of cell suspension. The suspension was gently mixed 10 times and 50 uL was immediately transferred to a microfluidic cell counting chip. A 365 nm LED was used to excite both Hoechst 33342 and propidium iodide. Images of the cells were captured using a 10× objective lens on an Olympus microscope using a Canon EOS 6D camera using an ISO of 800 and an exposure of 2 seconds; both JPEG and RAW images were saved for analysis. The blue channel was used to measure the total number of cells and the red channel was used to measure the number of dead cells. Cell counting was performed automatically by the Image Pro software (Media Cybernetics, Inc).
MTA and EM effects on apoptosis were measured by Hoechst-Propidium Iodide staining (HoPI). For the assay, cells were seeded in 6-well plates at 400K cells per well, in 2 mL of 10% FBS-containing media and incubated for 24 hours. At 24 hours, a 1 nM to […] range of MTA and/or 1 ng/mL to 1 mg/mL range of EM doses was added and incubated for 24 hours. After 24 hours incubation respective cells' media was collected, added the 1× HBSS wash from the plate in the respective tube. Adherent cells were detached by treating with Accutase for 6 minutes and collected in respective tubes. All samples were centrifuged for 5 minutes at 1200 RPM. The cell pellets were resuspended in PBS and centrifuged again for 5 minutes at 1200 RPM. Cell pellets were resuspended in 200 uL of PBS and mixed properly to get single cell suspension. 50 uL of cell suspension was added into separate tubes having 10 uL of a 2× HOPI solution (20 ug/mL Hoechst 33342 and 20 ug/mL propidium iodide solution) to get a final concentration of Hoechst 33342 and propidium iodide to […]. Make up the volume to 100 uL with 40 uL of PBS. Samples were mixed thoroughly for even cell staining and the microfluidsic chip wells were each filled with 10 uL of sample. Chips were then incubated in the dark for 20 minutes. A 365 nm LED was used to excite both Hoechst 33342 and propidium iodide as they were visualize under a microscope. Cell images were captured using a 10× objective lens on an Olympus microscope using a Canon EOS 6D camera with an ISO of 800 and an exposure of 2 seconds; both JPEG and RAW images were saved for analysis. The blue channel was used to measure the total number of cells and the red channel was used to measure the number of dead cells. For image analysis, a copy of the image was created and converted directly into an 8-bit gray scale image. A threshold was placed on the image to create a binary mask; the threshold level was 20 intensity units out of 255 intensity units. Next, a particle analysis algorithm was applied to the binary mask and a set of cellular regions (between 100 to 800 cellular regions per image) was created. The original image was then split into red, green and blue channels. The area, mean intensity, standard deviation of the mean intensity, minimum intensity, maximum intensity and perimeter were measured for each cellular region in the red channel and also in the blue channel. The green channel was discarded. To discern between live and dead cells, the maximum intensity in the red channel was used with a threshold of 100 intensity units. Double plots were created using the intensity of the blue channel (X-axis) and the intensity of the red channel (Y-axis). […]

The test system of test [3] is RPMI-1975. The test can be described thus: HoPI live cell staining. The settings on record: single agent, 24 hours.
Source text: as §1
MTA and EM effects on apoptosis were measured by Hoechst-Propidium Iodide staining (HoPI). For the assay, cells were seeded in 6-well plates at 400K cells per well, in 2 mL of 10% FBS-containing media and incubated for 24 hours. At 24 hours, a 1 nM to […] range of MTA and/or 1 ng/mL to 1 mg/mL range of EM doses was added and incubated for 24 hours. After 24 hours incubation respective cells' media was collected, added the 1× HBSS wash from the plate in the respective tube. Adherent cells were detached by treating with Accutase for 6 minutes and collected in respective tubes. All samples were centrifuged for 5 minutes at 1200 RPM. […] The area, mean intensity, standard deviation of the mean intensity, minimum intensity, maximum intensity and perimeter were measured for each cellular region in the red channel and also in the blue channel. […]

Test [4] has as its system A-253 cells. The experiment in a line: Western blot of protein biomarkers. Conditions: spermidine (50 μM)+GM-CSF (50 ng/mL). The procedure: (§2) MTA and EM effects on protein biomarker expression were measured by western blotting. For the assay cell lines (Ca9-22, PE/CA-PJ15, HTB-38, HPAF-II, CAL27, BICR-16, A-253, Calu-6, PC-9, H1838, RPMI-7951 and A7) were cultured and treated with doses of MTAs alone, EMs alone and in combination and then lysed for protein analysis. This method can readily be conducted under adherent or suspension conditions, manually or on automated instruments, such as SnapPath. A total of 0.3×10^6 cells per well were seeded in 6 well plates with 10% FBS-containing media and incubated for 24 hours. Cells were then treated with MTA and/or EM concentrations for 24 hours. For total protein extraction, briefly, each sample media was collected, and wells were washed with HMS, and the wash was combined with its respective media collection. Cells were then detached using Accutase solution and again collected in its respective sample media and another HMS well wash and collection was performed. All cell solutions were centrifuged, washed with ice-cold PBS, and centrifuged again. Cell pellets were lysed in 250 μL of ice-cold 1× lysis buffer with protease and phosphatase inhibitor cocktails and incubated for 10 minutes on ice. Lysates were clarified with a centrifugation (14,000 rpm) for 10 minutes at 4° C. Cell lysates were quantified using Bio-Rad DC Protein Assay (Bio-Rad Cat. #5000116).
(§3) For all western blots, an equal amount of protein (3-5 μg) was loaded into SDS-polyacrylamide gels (Mini-Protean TGX Precast Gel; Bio-Rad, e.g. 7.5%, Cat. #4561024; 10%, Cat. #4561035; 12%, Cat. #4561045; or 4-15%, Cat. #4561085). Proteins were separated at 215V for at least 30 minutes in 1× Tris/Glycine/SDS buffer (Bio-Rad Cat. #1610772) and transferred to PVDF membranes using a Trans-Blot Turbo (Bio-Rad Cat. #1704155) for 7 minutes in transfer buffer (Trans-Blot Turbo Transfer Kit, Bio-Rad Cat. #1704273). Blots were blocked at room temperature for 1 hour with 5% non-fat dry milk in tris-buffered saline with Tween 20 (TBST; 15 mM Tris-HCl, pH 7.5, 200mMNaCl and 0.1% Tween 20). Membranes were incubated with primary antibodies at 4° C. overnight and at room temperature for 1 hour the next day; all primary antibodies were diluted following manufacturer's specifications in TBST with either 5% BSA or 5% non-fat dry milk. Membranes were washed in TBST for 5 minutes, three times, and incubated with HRP-conjugated secondary antibodies diluted 1:5000 in TBST with 5% non-fat dry milk at room temperature for 1 hour (anti-rabbit IgG, Bio-Rad Cat. #1706515; or anti-mouse IgG, Bio-Rad Cat. #1706516). Membranes were then washed in TBST for 10 minutes, three times, and target proteins were identified using Clarity Western ECL Substrate (Bio-Rad Cat. #1705061) on autoradiography film (GenHunter Cat. #B581, Nashville, Tenn., USA). Other assay types, such as Luminex multiplexed immunoassays, ICC, IHC, flow cytometry, etc. can be used readily.
In general terms: A western blot detects proteins with antibodies after separation by electrophoresis.

Test [5] relates to H1975 (EGFR-double mutant line). The test can be described thus: MTT cell survival assay. The settings on record: erlotinib 14 μM alone; H1975; 72 hours. The procedure: Cells (10^4 cells/well) were grown in 96-well plates and exposed for 72 hours to different doses of erlotinib, alone or in combination with EM2. The percentage of cell survival was determined using the 3-(4, 5-dimethylthiazol-2-yl)-2, 5-diphenyltetrazolium bromide (MTT). Single drug alone and vehicle were kept as controls.

For test [6], the system named is PE/CA-PJ15 cells. The test can be described thus: Western blot of protein biomarkers. Conditions: spermidine (50 μM)+IL-12 (50 ng/mL). The procedure:
as §2, §3

As to interleukin 6 [EM4], the “response enhancement (in vitro sensitivity to various MTAs with and without EM, WST8)” value in test [1] is “no, minimal and strong response enhancement”.

`C=CC(=O)Nc1cc(Nc2nccc(-c3cn(C)c4ccccc34)n2)c(OC)cc1N(C)CCN(C)C` [osimertinib, Osimertinib, reference compound]: the “reduction in the number of live cells (HoPI)” value in test [2] was 41%.

Take `COc1ncc(-c2ccc3nccc(-c4ccnnc4)c3c2)cc1NS(=O)(=O)c1ccc(F)cc1F` [GSK458, Omipalisib, reference compound]: in test [2], the “reduction in the number of live cells (HoPI)” value was found to be 22%. Moreover, the “reduction in live cells (HoPI)” value in test [3] is 30%.

For “granulocyte-macrophage colony-stimulating factor [EM10]”, the Ki67 expression result in test [4] (compared to both MTA and EM alone) is given as “enhanced reduction in Ki67 expression”. In addition, in test [4] (compared to either alone), the LC3II expression result was “LC3II upregulation” and the p62 expression entry was “reduction in p62”.

Consider transforming growth factor-beta-1 [EM3], for which the “response enhancement (in vitro sensitivity to various MTAs with and without EM, WST8)” value in test [1] was “no, minimal and strong response enhancement”.

For the molecule `C#Cc1cccc(Nc2ncnc3cc(OCCOC)c(OCCOC)cc23)c1` [erlotinib, Erlotinib hydrochloride, reference compound], in test [5], the “cell survival (MTT), effect of erlotinib alone” value was “absence of effect”.

B1: interleukin 12 (protein, UniProt P29459 23-219; P29460 23-328, looked up)
Interleukin-12 subunit alpha: RNLPVATPDPGMFPCLHHSQNLLRAVSNMLQKARQTLEFYPCTSEEIDHEDITKDKTSTVEACLPLELTKNESCLNSRETSFITNGSCLASRKTSFMMALCLSSIYEDLKMYQVEFKTMNAKLLMDPKRQIFLDQNMLAVIDELMQALNFNSETVPQKSSLEEPDFYKTKIKLCILLHAFRIRAVTIDRVMSYLNAS
Interleukin-12 subunit beta: IWELKKDVYVVELDWYPDAPGEMVVLTCDTPEEDGITWTLDQSSEVLGSGKTLTIQVKEFGDAGQYTCHKGGEVLSHSLLLLHKKEDGIWSTDILKDQKEPKNKTFLRCEAKNYSGRFTCWWLTTISTDLTFSVKSSRGSSDPQGVTCGAATLSAERVRGDNKEYEYSVECQEDSACPAAEESLPIEVMVDAVHKLKYENYTSSFFIRDIIKPDPPKNLQLKPLKNSRQVEVSWEYPDTWSTPHSYFSLTFCVQVQGKSKREKKDRVFTDKTSATVICRKNASISVRAQDRYYSSSWSEWASVPCS
notes: enhancer molecule, cytokine purchased from Sigma
Consider B1, for which, in test [6], the p62 expression result is given as “increased expression”. Further, the “LC3II over LC3I expression” value in test [6] (24 hours, compared to either alone) is reported as “marked increase in LC3II over LC3I expression”.

The values above are taken from patent publication US20220339257A1, “METHODS TO INCREASE THE SENSITIVITY AND REVERSING THE RESISTANCE TO DRUGS” (Biomarker Strategies, LLC, priority 2019, published 2022).
